Earlier results in patent publication US12370233B2, “Depot systems comprising glatiramer acetate” (MAPI PHARMA LTD., priority 2016, dated 2025).

Details: as reported by Rotstein et al., JAMA Neurol., 2015

Substance	NEDA at one year [%]
daclizumab [ZINBRYTA®]	39
natalizumab [TYSABRI®]	47
